Laboratory results from US20140094365A1, “SYNERGISTIC WEED CONTROL FROM APPLICATIONS OF AMINOCYCLOPYRACHLOR AND TRICLOPYR” (Dow AgroSciences LLC, priority 2012, published 2014).

How the values were obtained:
Test in all cases: Field trial, post-emergence foliar weed control
Format in all cases: in vivo
[1] = tested on: redmaids (Calandrinia ciliata, CLNCM); conditions: 17 DAYS
Excerpt: (§1) The (a) aminocyclopyrachlor or an agriculturally acceptable salt or ester thereof is mixed with or applied in combination with (b) triclopyr or an agriculturally acceptable salt or ester thereof in an amount sufficient to induce a synergistic herbicidal effect. […] As described in the Herbicide Handbook of the Weed Science Society of America, Ninth Edition, 2007, p. 429, “‘synergism’ [is] an interaction of two or more factors such that the effect when combined is greater than the predicted effect based on the response to each factor applied separately.” Synergistic in the herbicide context can mean that the use of (a) and (b) as defined above results in an increased weed control effect compared to the weed control effects that are possible with the use of (a) or (b) alone. In some embodiments, the damage or injury to the undesired vegetation caused by the compositions and methods disclosed herein is evaluated using a scale from 0% to 100%, when compared with the untreated control vegetation, wherein 0% indicates no damage to the undesired vegetation and 100% indicates complete destruction of the undesired vegetation. […] 22 (1967)
(§2) Field trials were conducted with applications made to established grassland with naturally occurring weed populations, or applications were made to bare ground with naturally occurring weed populations. The target plants were treated with post emergence foliar applications after they had reached at least 3-4 leaves or at least 2-5 inches in height. All treatments were applied using a randomized complete block trial design, with 3-4 replications per treatment.
(§3) Treatments consisted of aminocyclopyrachlor in acid form and triclopyr-butotyl, each in water and applied alone or in combination. Spray solutions were prepared using an appropriate amount of dilution to form a 2 liter (L) aqueous spray solution with active ingredients in single and two way combinations. Formulated compounds were applied to the plant material with a backpack sprayer equipped with 8003 or Turbojet nozzles calibrated to deliver 187 L/ha to 400 L/ha at a spray height of 18-20 inches (43-50 centimeters (cm)) above average plant canopy.
(§4) The treated plants were buckhorn plantain (Plantago lanceolata, PLALA), calvary clover (Medicago arabica, MEDAB), shepherd's purse (Capsella bursa-pastoris, CAPBP), common fiddleneck (Amsinckia intermedia, AMSIN), redmaids (Calandrinia ciliata, CLNCM), and broomweed (Sida acuta, SIDAC). The treated plots and control plots were rated blind at various intervals after application. Ratings were based on a scale of 0-100%, as discussed above, wherein 0% indicates no damage to the undesired vegetation and 100% indicates complete destruction of the undesired vegetation
(§5) Colby's equation was used to determine the herbicidal effects expected from the mixtures, as described above. The results were measured at 7 days, 14 days, 17 days, 24 days, 27 days, 60 days, and 72 days after the first application of the compositions. […] The herbicide tank mix combinations tested, application rates and ratios employed, plant species tested, and results are given below.

[2] = tested on: buckhorn plantain (Plantago lanceolata, PLALA)
Excerpt: as §1, §2, §3, §4, §5

[3] = tested on: common fiddleneck (Amsinckia intermedia, AMSIN)
Excerpt: as §1, §2, §3, §4, §5

[4] = tested on: calvary clover (Medicago arabica, MEDAB)
Excerpt: as §1, §2, §3, §4, §5

[5] = tested on: shepherd's purse (Capsella bursa-pastoris, CAPBP)
Excerpt: as §1, §2, §3, §4, §5

[6] = tested on: broomweed (Sida acuta, SIDAC)
Excerpt: as §1, §2, §3, §4, §5

## CCCCOCCOC(=O)COc1nc(Cl)c(Cl)cc1Cl [Triclopyr-butotyl]
[1]; 70 g ae/ha alone
  Mean % weed control: 20%
[1]; 140 g ae/ha alone
  Mean % weed control: 23.33%
[2]; 14 DAYS, 70 g ae/ha alone
  Mean % weed control: 7.5%
[2]; 27 DAYS, 35 g ae/ha alone (triclopyr-butotyl)
  Mean % weed control: 2.5%
[2]; 27 DAYS, 70 g ae/ha alone
  Mean % weed control: 3.75%
[3]; 17 DAYS, 70 g ae/ha alone
  Mean % weed control: 0%
[3]; 24 DAYS, 70 g ae/ha alone
  Mean % weed control: 0%
[4]; 7 DAYS, 70 g ae/ha alone
  Mean % weed control: 13.75%
[4]; 14 DAYS, 70 g ae/ha alone
  Mean % weed control: 10%
[4]; 27 DAYS, 35 g ae/ha alone
  Mean % weed control: 2.5%
[4]; 27 DAYS, 70 g ae/ha alone
  Mean % weed control: 5%
[5]; 17 DAYS, 35 g ae/ha alone
  Mean % weed control: 40%
[5]; 17 DAYS, 70 g ae/ha alone
  Mean % weed control: 46.67%
[5]; 24 DAYS, 35 g ae/ha alone
  Mean % weed control: 40%
[5]; 24 DAYS, 70 g ae/ha alone
  Mean % weed control: 58.33%
[6]; 60 DAYS, 360 g ae/ha alone
  Mean % weed control: 2%
[6]; 72 DAYS, 360 g ae/ha alone
  Mean % weed control: 10%

## Nc1nc(C2CC2)nc(C(=O)O)c1Cl [Aminocyclopyrachlor, 6-amino-5-chloro-2-cyclopropylpyrimidine-4-carboxylic acid]
[1]; 35 g ae/ha alone
  Mean % weed control: 16.67%
[2]; 14 DAYS, 18 g ae/ha alone
  Mean % weed control: 37.5%
[2]; 14 DAYS, 35 g ae/ha alone
  Mean % weed control: 40%
[2]; 27 DAYS, 18 g ae/ha alone
  Mean % weed control: 22.5%
[2]; 27 DAYS, 35 g ae/ha alone (aminocyclopyrachlor)
  Mean % weed control: 35%
[3]; 17 DAYS, 35 g ae/ha alone
  Mean % weed control: 0%
[3]; 24 DAYS, 35 g ae/ha alone
  Mean % weed control: 0%
[4]; 7 DAYS, 18 g ae/ha alone
  Mean % weed control: 20%
[4]; 14 DAYS, 18 g ae/ha alone
  Mean % weed control: 47.5%
[4]; 14 DAYS, 35 g ae/ha alone
  Mean % weed control: 47.5%
[4]; 27 DAYS, 18 g ae/ha alone
  Mean % weed control: 27.5%
[5]; 17 DAYS, 18 g ae/ha alone
  Mean % weed control: 23.33%
[5]; 24 DAYS, 18 g ae/ha alone
  Mean % weed control: 20%
[6]; 60 DAYS, 150 g ae/ha alone
  Mean % weed control: 53%
[6]; 72 DAYS, 150 g ae/ha alone
  Mean % weed control: 60%
